# How the values were obtained:
# B16F10 cell lines = experiment: Cytotoxicity assay (CCK-8); type: cell-based; conditions: for Effect on cell proliferation at a low concentration / Effect on cell proliferation rate at higher concentrations: B16F10, 24 hours; for Effect on cell proliferation at a low concentration: CCK-8, absorbance 450 nm; for Effect on cell proliferation rate at higher concentrations: CCK-8, 5 mM and 10 mM
# Method: B16F10 cell lines were incubated into a plate with 96 wells. After cell adherence, a Mel solution with different concentrations or a Mels solution with different concentrations was respectively added to one of the 96 wells in turn. Final concentrations of the Mel solution or the Mels solution were respectively 10 μM (10 μmol/L), 100 μM (100 μmol/L), 1 mM (1 mmol/L), 5 mM (5 mmol/L), and 10 mM (10 mmol/L). After incubating for 24 hours, CCK-8 (Cell Counting Kit-8) was added into each one of the 96 wells. Absorbance of the Mel solution and the Mels solution was measured at 450 nm.
# [1] = as disclosed in SCCS Opinion on MLT, 23 Mar. 2010; cited from earlier work
# mice = experiment: Sleep experiment in sodium pentobarbital mouse sleep models; type: in vivo
# Method: Mouse sleep models were established by injecting 300 μL 1% sodium pentobarbital solution into mice, and then dividing the mice into three groups. Each group comprised five mice. A first group of the three groups were injected with 100 μL normal saline as a control group, a second group of the three groups were injected with 100 μL natural unmodified melatonin (Mel) solution, a concentration of Mel was 86 μM (86 μmol/L) or 860 nM (860 nmol/L), and a third group of the three groups was injected with modified melatonin (Mels) solution with the same concentration and volume as that of the second group. A sleep duration began to be recorded one minute after a loss of righting reflex, and recording ended when the righting reflex returned.
# [2] = Solubility determination in water; type: physicochemical
# Method: In order to evaluate solubility of a new melatonin derivative of Embodiment 1, solubility of Mel and Mels were tested. […] Therefore, the solubility of Mels is nearly 700 times (695 times) the solubility of Mel (FIG. 4). Good water solubility of Mels can greatly improve application and greatly contribute to the research of this molecule in the field of medicine and biology.
# C57/B6 mice = experiment: Safety verification in vivo (body weight and diet changes); design: species or system mouse; conditions: intraperitoneal
# Method: To test a safety of Mels of Embodiment 1 in vivo, Mel, Mels, or saline was intraperitoneally injected into mice. Using C57/B6 mice (about 18 g), the mice were randomly divided into three groups: a control group, a Mel group, and a Mels group. Then, 200 μL of normal saline, Mel and Mels solution (dissolving Mel and Mels in saline containing 5% DMSO, 10 mmol/L) were respectively intraperitoneally injected into the mice. The injection process was repeated three times at days 2, 6, and 10, and body weight changes and diet changes of mice were recorded. […] In short, Mels has lower toxicity and good safety in vitro and in vivo.
SMILES,Effect on cell proliferation at a low concentration (B16F10 cell lines),Effect on cell proliferation rate at higher concentrations (B16F10 cell lines),Solubility in 100 mL water [1] [g],"Sleep time of mice (mice; mice given 300 μL 1% sodium pentobarbital, 100 μL of 86 μM or 860 nM solution injected, prolonged from 1 hour) [h]","Effect on sleep compared with Mel (mice; same concentration and volume as Mel (86 μM or 860 nM, 100 μL))","Cytotoxicity on cells compared with Mel (B16F10 cell lines; B16F10, at an even higher concentration)",solubility ([2]; in 100 mL water) [mg/mL],Solubility of Mels relative to solubility of Mel ([2]; water solubility ratio versus melatonin) [times],"Effect on body weights and diets of the mice (C57/B6 mice; 200 μL of 10 mmol/L in saline with 5% DMSO, days 2, 6 and 10, versus control group and Mel group)","Safety in vivo (C57/B6 mice; C57/B6 mice, 10 mmol/L, 200 μL, three injections)"
"COc1ccc2[nH]cc(CCNC(C)=O)c2c1 [Mel, melatonin]",no effects on cell proliferation,affected cell proliferation rate,0.2,–,–,–,–,–,–,–
"COc1ccc2c(c1)c(CCNC(C)=O)cn2CCCCS(=O)(=O)[O-].[Na+] [Mels, 4-(3-(2-acetamidoethyl)-5-methoxy-1H-indol-1-yl) butane-1-sulfonate]",no effects on cell proliferation,little affected on cell proliferation rate,–,3,same effect as Mel,much smaller than that of Mel,1600,695,no significant effect,good safety in vivo
